From US20250051391A1, “PEPTIDE INHIBITORS AND METHODS FOR INHIBITING PROTEIN AGGREGATION IN NEURONS AND NEURODEGENERATIVE DISEASES” (THE GOVERNING COUNCIL OF THE UNIVERSITY OF TORONTO, priority 2021, published 2025)
Ends that are not written are not given here.

Assays:
[1] = test system: HEK293 cells overexpressing WT or A53T a-syn; assay: Cell Titer-Glo cell viability assay in a-syn expressing cells; type: cell-based, human; details: for cell viability / cytoprotective effect: HEK293 cells overexpressing WT or A53T a-syn, with or without MG132, expressed GFP-peptide or protein
Protocol: Oligonucleotides encoding the specific peptides were synthesized and individually cloned into the pLJM1 nGFP lentiviral vector. Cells were infected with individual constructs, and cell viability was assessed using Cell Titer-Glo Luminescent assay (Promega) at 72 h post infection.
Cells were trypsinized from subconfluent cultures as described earlier, suspended in culture media, and then seeded into triplicate wells of a 96-well plate (100 μl well/1) at a density of 1.5×10^4 cells per well at standard culture conditions of 5% CO2 in air at 37° C. Cells were infected with lentivirus expressing peptide at an MOI of 5 for 72 h or transfected with plasmid for 72 h. Cell Titer-Glo reagent was added to each well (30 μL), according to the manufacturer's protocol and […].

[2] = test system: WT a-syn oligomers; assay: Split luciferase a-syn oligomer/aggregation assay; type: cell-based, human; details: cells stably expressing split luciferase WT a-syn constructs; GFP-peptide plasmids
Protocol: tet-off cells stably expressing split luciferase a-syn constructs were trypsinized from subconfluent culture and seeded in a 96-well plate at a density of 15,000 cells per well. Cells were incubated overnight at 37° C. in 5% CO2. […] After 6 h of incubation, 20 μL of cell medium was transferred to a black flat-bottomed 96-well plate. 50 μL of Working solution (Pierce Gaussia-Firefly Luciferase Dual Assay Kit, Thermo Scientific #16181) was added into each well containing cell medium. Immediately after adding the reagent, samples were read using a luminometer with a 480 nm filter.

[3] = biological target: T1, Flag-CHMP2B (Homo sapiens, UniProt Q9UQN3); assay: Flag co-immunoprecipitation of GFP-peptides with Flag-CHMP2B; type: binding; details: GFP-tagged peptides in HEK293T cells
T1 construct: expressed in transfected cells; host or cells: HEK293T
Protocol: (§1) HEK293T cells were co-transfected with Flag-tagged target protein, HA-tagged source protein, and GFP-tagged peptide or GFP. Cells were lysed 48 h after transfections with radioimmune precipitation assay buffer (50 mM Tris-HCl pH7.4, 1% Nonidet P-40, 150 mM NaCl, 1 mM EDTA, 10 mM Na3VO4, 10 mM sodium pyrophosphate, 25 mM NaF, 1× protease inhibitor mixture (Sigma)) for 30 min at 4° C. and coimmunoprecipitated with Flag beads (Clontech). The resulting immunocomplexes were analyzed by immunoblot using the appropriate antibodies. Protein samples were separated using 4-20% Mini-PROTEAN Tris-glycine gels (Bio-Rad) transferred to PVDF membranes and blocked in 5% milk containing PBS-Tween-20 (0.1%) for 1 h. PVDF membranes were then incubated with specified primary antibodies followed by incubation with horseradish peroxidase-conjugated secondary antibodies (Santa Cruz Biotechnology) and detected using enhanced chemiluminescence (GE Healthcare).

[4] = biological target: T2, a-syn-CHMP2B interaction (Homo sapiens, UniProt Q9UQN3); assay: Co-immunoprecipitation: disruption of CHMP2B-A53T a-syn interaction; type: cell-based; details: HEK293 cells; Flag-CHMP2B, HA-tagged A53T a-syn, GFP-tagged peptides
T2 construct: expressed in transfected cells; host or cells: HEK293T
Protocol: as §1

[5] = test system: A53T a-syn; assay: a-syn protein levels by immunoblot in HEK293 cells; type: cell-based, human; details: HEK293 cells expressing A53T a-syn
Protocol: Infected or transfected cells were scraped from 6-well dishes and lysed with lysis buffer (50 mM Tris-HCl pH7.4, 1% Nonidet P-40, 150 mM NaCl, 1 mM EDTA, 1× protease inhibitor mixture (Sigma)) for 30 min at 4° C. The insoluble pellet was removed following a 10,000 rpm spin for 5 minutes at 4° C. Lysates were analyzed by SDS-PAGE/immunoblot using 4-20% Mini-PROTEAN Tris-glycine gels (Bio-Rad) transferred to PVDF membranes and blocked in 5% milk containing PBS-Tween-20 (0.1%) for 1 h. PVDF membranes were then incubated with specified primary antibodies followed by incubation with horseradish peroxidase-conjugated secondary antibodies (Santa Cruz Biotechnology) and detected using enhanced chemiluminescence (GE Healthcare).

[6] = test system: A53T a-syn iPSC-derived dopaminergic neurons; assay: Human iPSC-derived dopaminergic neurons with A53T a-syn mutation; type: cell-based; details: A53T a-syn iPSC-derived dopaminergic neurons vs isogenic controls
Protocol: iCell Dopa neurons (A53T a-syn mutant and isogenic control) were purchased from Fujifilm Cellular Dynamics (Madison, WI, USA) and cultured as per manufacturer's instructions. Briefly, cells were plated in complete maintenance medium provided by the manufacturer on poly-L-ornithine/laminin coated plates (ibidi). Cells recovered from thawing for 24 h and then were transduced with AAV-Scramble1.3-RFP or AAV-Pdpep1.3-RFP for 48 h at which time media was completely changed. Cells were fixed using 4% PFA at 7 days post-plating.
After fixation, cells were permeabilized with 0.2% Triton X-100 for 15 min, washed 3 times with PBS and then incubated with blocking solution (1% BSA, 22.52 mg/mL glycine, 0.1% Tween-20 in PBS) for 1 h. […] Following another 3 PBS washes, nuclei were counterstained with DAPI (ThermoFisher) and then coverslips were mounted on slides using fluorescence mounting medium (DAKO) and sealed using clear nail varnish.
Confocal images of primary cortical neurons, dopaminergic neurons, and LAMP1 staining within the SN were processed using Imaris software (Oxford instruments). Z stacks were projected to give a 3D reconstruction of the field of view and mean pixel intensity per GFP^+ cell (or RFP^+ cell for V1S/SV2 experiments) was calculated for a-syn or LAMP1 signal using the software's surfaces module. […]

T1 sequence (Q9UQN3 whole entry): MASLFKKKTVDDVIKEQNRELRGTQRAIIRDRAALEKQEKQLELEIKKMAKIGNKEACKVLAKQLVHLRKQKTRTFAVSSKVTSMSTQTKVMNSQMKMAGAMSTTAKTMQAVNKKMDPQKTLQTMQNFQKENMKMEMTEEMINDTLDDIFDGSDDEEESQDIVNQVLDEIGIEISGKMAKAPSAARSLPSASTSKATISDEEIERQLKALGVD
T2 sequence (Q9UQN3 whole entry): as above

Substance	cell viability / cytoprotective effect [1]	a-syn oligomers measured by luciferase activity [2]	interaction with Flag-CHMP2B (co-immunoprecipitation) [3]	disruption of a-syn-CHMP2B interaction (co-immunoprecipitation) [4]	a-syn protein levels by immunoblot [5]	effect on cell viability under p62 knockdown ([1]; HEK293 cells stably expressing p62 shRNA)	cytoprotective effect under shRNA knockdown of CHMP2B, VPS4A and/or VPS4B ([1]; cells stably expressing shRNAs)	interaction with Flag-CHMP2B (co-immunoprecipitation) ([3]; listed as Pdpep1.3)	LAMP1 levels [6]	a-syn levels [6]
IPIQLKA [PDpep1, top hit of all screens; maps to CHMP2B residues 203-209]	cytoprotective effects	reduce WT a-syn oligomers	interacted with Flag-CHMP2B	disrupted the a-syn-CHMP2B interaction	reduction in a-syn levels					
DEEIERQLKALG [PDpep1.3]	most prominent effects on cell survival	most prominent effects	interacted with Flag-CHMP2B	most prominent disruption	reduction in a-syn levels	not significantly affected	prevented by CHMP2B knockdown, but not by knockdown of VPS4A and/or VPS4B	binds to CHMP2B	returned both a-syn and LAMP1 levels to those of controls	returned both a-syn and LAMP1 levels to those of controls
